Laboratory results as given in patent US20070128217A1 (priority 2003, published 2007).

Assays:
[1] = tested on: recombinant human anti-SARS-CoV antibody 03-018; format: binding; design: Binding of antibody 03-018 to linear peptides of the N protein of SARS-CoV Urbani / Binding of antibody 03-018 to looped/cyclic peptides of the N protein of SARS-CoV Urbani: unit not given here
[2] = tested on: rabbit serum obtained by immunizing a rabbit with the SARS-CoV strain Frankfurt 1; format: binding; design: Binding of a rabbit serum to linear peptides / Binding of a rabbit serum to looped peptides / Rabbit serum linear peptides / Rabbit serum looped peptides / Binding of a rabbit serum to linear peptides of protein N of SARS-CoV Urbani (Rabbit serum linear peptides) / Binding of a rabbit serum to looped/cyclic peptides of protein N of SARS-CoV Urbani (Rabbit serum looped peptides): unit not given here
[3] = tested on: control sera (pooled serum of ten healthy LUMC hospital workers; commercial negative donor pooled serum from the Dutch bloodbank); format: binding, human; design: Binding of Control serum LUMC to linear peptides / Binding of Control serum Blood-bank to linear peptides / Binding of Control serum LUMC to looped peptides / Binding of Control Serum Blood-Bank to Looped peptides / Binding of Control serum LUMC to linear peptides of the protein M of SARS-CoV Urbani / Binding of Control serum Blood-bank to linear peptides of the protein M of SARS-CoV Urbani / Binding of Control serum LUMC to looped peptides of the protein M of SARS-CoV Urbani / Binding of Control Serum Blood-Bank to Looped peptides of the protein M of SARS-CoV Urbani: unit not given here
[4] = tested on: antibodies in sera from SARS patients (sera 1a, 1b, 2, 6, 37, 62, London, SARS-yellow, SARS-green); format: binding, human; design: Binding of serum 6 to linear peptides of protein X1 of SARS-CoV Urbani / Binding of serum 37 to linear peptides of protein X1 of SARS-CoV Urbani / Binding of serum 6 to looped/cyclic peptide (PEPSCAN-ELISA) / Binding of serum 37 to looped/cyclic peptide (PEPSCAN-ELISA) / Binding of serum 37 to looped/cyclic peptides of protein X1 of SARS-CoV Urbani / Binding of serum 6 to linear peptides of protein X2 / Binding of serum 37 to linear peptides of protein X2 / Binding of serum 37 to looped/cyclic peptides of protein X2 of SARS-CoV Urbani / Binding of serum 6 to linear peptides of protein M of SARS-CoV Urbani / Binding of serum 37 to linear peptides of protein M of SARS-CoV Urbani / Binding of serum 6 to looped/cyclic peptides of protein M of SARS-CoV Urbani / Binding of serum 37 to looped/cyclic peptides of protein M of SARS-CoV Urbani / Binding of serum 6 to linear peptides of protein X3 of SARS-CoV Urbani / Binding of serum 37 to linear peptides of protein X3 of SARS-CoV Urbani / Binding of serum 37 to looped/cyclic peptides of protein X3 of SARS-CoV Urbani / Binding of serum 6 to linear peptides of protein X4 of SARS-CoV Urbani / Binding of serum 37 to linear peptides of protein X4 of SARS-CoV Urbani / Binding of serum 37 to looped/cyclic peptides of protein X4 of SARS-CoV Urbani / Binding of serum 6 to linear peptides of protein X5 of SARS-CoV Urbani / Binding of serum 37 to linear peptides of protein X5 of SARS-CoV Urbani / Binding of serum 37 to looped/cyclic peptides of protein X5 of SARS-CoV Urbani / Binding of serum 6 to linear peptides of protein N of SARS-CoV Urbani / Binding of serum 37 to linear peptides of protein N of SARS-CoV Urbani / Binding of serum 6 to linear peptide (PEPSCAN-ELISA) / Binding of serum 1a to looped/cyclic peptides of protein N of SARS-CoV Urbani / Binding of serum 1b to looped/cyclic peptides of protein N of SARS-CoV Urbani / Binding of serum 2 to looped/cyclic peptides of protein N of SARS-CoV Urbani / Binding of serum 6 to looped/cyclic peptides of protein N of SARS-CoV Urbani / Binding of serum 37 to looped/cyclic peptides of protein N of SARS-CoV Urbani / Binding of serum 62 to looped/cyclic peptides of protein N of SARS-CoV Urbani / Binding of serum London to looped/cyclic peptides of protein N of SARS-CoV Urbani / Binding of serum SARS-green to looped/cyclic peptides of protein N of SARS-CoV Urbani: unit not given here

Sequence | Binding of antibody 03-018 to linear peptides of the N protein of SARS-CoV Urbani [1] | Binding of antibody 03-018 to looped/cyclic peptides of the N protein of SARS-CoV Urbani [1] | Binding of serum 1a to linear peptides of protein N of SARS-CoV Urbani [4] | Binding of serum 1a to looped/cyclic peptides of protein N of SARS-CoV Urbani [4] | Binding of serum 1b to linear peptides of protein N of SARS-CoV Urbani [4] | Binding of serum 1b to looped/cyclic peptides of protein N of SARS-CoV Urbani [4] | Binding of serum 2 to linear peptides of protein N of SARS-CoV Urbani [4] | Binding of serum 2 to looped/cyclic peptides of protein N of SARS-CoV Urbani [4] | Binding of serum 6 to linear peptides of protein N of SARS-CoV Urbani [4] | Binding of serum 6 to looped/cyclic peptides of protein N of SARS-CoV Urbani [4] | Binding of serum 37 to linear peptides of protein N of SARS-CoV Urbani [4] | Binding of serum 37 to looped/cyclic peptides of protein N of SARS-CoV Urbani [4] | Binding of serum 62 to linear peptides of protein N of SARS-CoV Urbani [4] | Binding of serum 62 to looped/cyclic peptides of protein N of SARS-CoV Urbani [4] | Binding of serum London to linear peptides of protein N of SARS-CoV Urbani [4] | Binding of serum London to looped/cyclic peptides of protein N of SARS-CoV Urbani [4] | Binding of serum SARS-green to linear peptides of protein N of SARS-CoV Urbani [4] | Binding of serum SARS-green to looped/cyclic peptides of protein N of SARS-CoV Urbani [4] | Binding of serum SARS-yellow to linear peptides of protein N of SARS-CoV Urbani [4] | Binding of serum SARS-yellow to looped/cyclic peptides of protein N of SARS-CoV Urbani [4] | further results
MDDFSRQLQNSMSGA | 0.2 | 0.2 | 0.2 | 0.4 | 0.1 | 0.1 | 0.3 | 0.4 | 0.2 | 0.1 | 0.8 | 0.4 | 0.7 | 0.4 | 0.8 | 0.3 | 0.6 | 0.3 | 0.7 | 0.2 | Binding of a rabbit serum to linear peptides of protein N of SARS-CoV Urbani (Rabbit serum linear peptides) [2]: 0.2; Binding of a rabbit serum to looped/cyclic peptides of protein N of SARS-CoV Urbani (Rabbit serum looped peptides) [2]: 0.4; Control Serum Blood-Bank Looped peptides [3]: 0.5; Control serum Blood-bank linear peptides [3]: 1.0; Control serum LUMC linear peptides [3]: 0.7; Control serum LUMC looped peptides [3]: 0.5
RQLQNSMSGASADST | 0.1 | 0.2 | 0.2 | 0.2 | 0.2 | 0.1 | 0.2 | 0.3 | 0.2 | 0.1 | 0.7 | 0.4 | 0.6 | 0.2 | 0.6 | 0.2 | 0.3 | 0.1 | 0.5 | 0.2 | Binding of a rabbit serum to linear peptides of protein N of SARS-CoV Urbani (Rabbit serum linear peptides) [2]: 0.5; Binding of a rabbit serum to looped/cyclic peptides of protein N of SARS-CoV Urbani (Rabbit serum looped peptides) [2]: 0.3; Control Serum Blood-Bank Looped peptides [3]: 0.4; Control serum Blood-bank linear peptides [3]: 0.7; Control serum LUMC linear peptides [3]: 0.6; Control serum LUMC looped peptides [3]: 0.2
QIGYYRRATRRVRGG | 0.1 | 0.2 | 0.3 | 0.3 | 0.1 | 0.2 | 0.2 | 0.4 | 0.2 | 0.3 | 0.6 | 0.7 | 0.6 | 0.6 | 0.5 | 0.4 | 0.2 | 0.4 | 0.6 | 0.6 | Recognition of the peptide by the rabbit serum [2]: recognized; Binding of Control Serum Blood-Bank to Looped peptides [3]: 0.8; Binding of Control serum Blood-bank to linear peptides [3]: 0.8; Binding of Control serum LUMC to linear peptides [3]: 0.6; Binding of Control serum LUMC to looped peptides [3]: 0.7
AQFAPSASAFFGMSR | 0.1 | 0.3 | 0.2 | 0.3 | 0.1 | 0.2 | 0.1 | 0.6 | 0.1 | 0.5 | 0.5 | 0.8 | 0.4 | 0.6 | 0.4 | 2.1 | 0.1 | 0.2 | 0.6 | 0.4 | Binding of a rabbit serum to linear peptides of protein N of SARS-CoV Urbani (Rabbit serum linear peptides) [2]: 0.1; Binding of a rabbit serum to looped/cyclic peptides of protein N of SARS-CoV Urbani (Rabbit serum looped peptides) [2]: 0.7; Control Serum Blood-Bank Looped peptides [3]: 0.8; Control serum Blood-bank linear peptides [3]: 0.7; Control serum LUMC linear peptides [3]: 0.5; Control serum LUMC looped peptides [3]: 0.6
